Laboratory results reported in US9446029B2, “Use of NK-1 receptor antagonists in management of visceral pain” (priority 2010, dated 2016).
Read-outs that look alike come from different tables or passages of the source.

Tests used:
dogs [1] = conditions: cited from earlier work
dogs [2] = assay: Sevoflurane MAC reduction by I.V. maropitant during ovarian ligament stimulation in dogs (Example 1); type: in vivo, dog; conditions: for MAC Reduction (%, mean ± SD): sevoflurane, ovarian ligament stimulation
Method: The NK1 receptor antagonist maropitant, available as […]® from Pfizer, is an antiemetic approved for use in dogs. The ability of maropitant to impact the sevoflurane minimum alveolar concentration (MAC) level needed for surgery was tested in canine subjects. The eight animals were 1 year old, intact female, Walker hound mix. A first group was administered 1 mg/kg maropitant, I.V. over 5 minutes then 30 μg/kg/h. A second group was administered 5 mg/kg maropitant, I.V. over 5 minutes then 150 μg/kg/h. General anesthesia was induced using sevoflurane as described below and otherwise according to standard veterinary procedure. Animals were maintained in dorsal recumbency. MAC reduction effect was tested by stimulation of the ovarian ligament. Ovariectomy was performed on each animal at the end of the study. In each animal, sterile laparoscopy was performed to access the right ovary. Following thirty minutes of sevoflurane at steady state, end-tidal sevoflurane concentration was measured with a calibrated agent analyzer (Biochem). […] Esophageal temperature was 37.5-39° C. Ovarian ligament stimulation was performed using 6.61 Newton's of force with a calibrated grass force displacement transducer. FIG. 1 is a bar graph comparing the MAC reduction using I.V. maropitant during […] anesthesia. The observed MAC reduction is reported at sea level (mean±SD), and compared to published results for other MAC reduction agents in Table 1.

cats = assay: Sevoflurane MAC during ovarian ligament stimulation in cats (Example 3); type: in vivo, cat; conditions: for sevoflurane anesthetic requirement MAC (mean±SD): ovarian ligament stimulation, control MAC 2.96±0.32%
Text: Ten (10) female cats were anesthetized with sevoflurane. Following stabilization, the right ovarian ligament was accessed using a laparoscopic approach to determine the anesthetic minimum alveolar concentration (MAC). The ovarian ligament was stimulated using 500 grams of traction force. The MAC is reported as mean±SD, adjusted for calibration values and to sea-level. The anesthetic requirement MAC during stimulation of the ovary was 2.96±0.32%.

dogs [3] = assay: Clinical trial of analgesia and comfort in dogs during and after spay surgery (laparotomy ovariohysterectomy), isoflurane anesthesia (Example 2); parameters: dogs showing overt signs of nausea after surgery: dose or concentration left out as unconfirmed; conditions: for Post-Operative Carprofen Rescue Analgesia (4 mg/kg, IV): dogs requiring a rescue dose: recovery period; for pain assessment, Visual Analogue Pain Scale (0-10), compared to control group: three hours following recovery from anesthesia, FIG. 6
[4] = maropitant 1 mg/kg SQ or morphine 0.5 mg/kg SQ before anesthesia

## CC(=O)c1ccc2c(c1)N(CCCN(C)C)c1ccccc1S2 [Acepromazine]
Dogs [1]; acepromazine 0.04 mg/kg, halothane, Heard et al., 1986
  MAC Reduction (%, mean ± SD): 40%

## Oc1ccc2c(c1)[C@@]13CCCC[C@@]1(O)[C@@H](C2)N(CC1CCC1)CC3 [Butorphanol]
Dogs [1]; dog, in vivo
  MAC Reduction (%, mean ± SD): 8%

## CC(C(=O)O)c1ccc2c(c1)[nH]c1ccc(Cl)cc12 (centres unmarked) [Carprofen]
Dogs [1]; carprofen 4 mg/kg, sevoflurane, Yamashita et al., 2008
  MAC Reduction (%, mean ± SD): 12%

## Cc1cccc([C@H](C)c2cnc[nH]2)c1C [Dexmedetomidine]
Dogs [1]; dexmedetomidine 0.5 μg/kg, 0.5 μg/kg/h, isoflurane, Pascoe et al., 2006
  MAC Reduction (%, mean ± SD): 18%
Dogs [1]; dexmedetomidine 3 μg/kg, 3 μg/kg/h, isoflurane, Pascoe et al., 2006
  MAC Reduction (%, mean ± SD): 59%

## CNC1(c2ccccc2Cl)CCCCC1=O (centres unmarked) [Ketamine]
Dogs [1]; dog, in vivo
  MAC Reduction (%, mean ± SD): 47%

## CCN(CC)CC(=O)Nc1c(C)cccc1C [Lidocaine]
Dogs [1]; lidocaine 2 mg/kg, 50 μg/kg/min, isoflurane, Valverde et al., 2004
  MAC Reduction (%, mean ± SD): 19%
Dogs [1]; lidocaine 2 mg/kg, 200 μg/kg/min, isoflurane, Valverde et al., 2004
  MAC Reduction (%, mean ± SD): 43%

## COc1ccc(C(C)(C)C)cc1CN[C@H]1C2CCN(CC2)[C@@H]1C(c1ccccc1)c1ccccc1 [Maropitant, (7R,8S)—N-[(5-tert-Butyl-2-methoxyphenyl)methyl]-7-[di(phenyl)methyl]-1-azabicyclo[2.2.2]octan-8-amine]
Dogs [2]; maropitant 1 mg/kg I.V. over 5 minutes then 30 μg/kg/h
  MAC Reduction (%, mean ± SD): 24%
Dogs [2]; maropitant 5 mg/kg I.V. over 5 minutes then 150 μg/kg/h
  MAC Reduction (%, mean ± SD): 30%
Dogs [2]; summary of Example 1 (1 and 5 mg/kg)
  increase of the pain threshold during anesthesia: 24-30%
cats; higher maropitant dose IV
  decrease of anesthetic requirement MAC: 17%
  sevoflurane anesthetic requirement MAC (mean±SD): 2.45±0.43%
cats; maropitant 1 mg/kg IV, 500 grams traction
  sevoflurane anesthetic requirement MAC (mean±SD): 2.50±0.33%
cats; maropitant 1 mg/kg IV, p<0.01
  decrease of anesthetic requirement MAC: 15%
Dogs [3]; [4]
  average heart rate throughout surgery: 103±20 beats per minute
  average respiratory rate throughout surgery: 21±12 breaths per minute
  dogs that started eating within 3 hours following surgery: 65%
  subjects responding with panting during surgical painful stimulation: 35%
  Post-Operative Carprofen Rescue Analgesia (4 mg/kg, IV): dogs requiring a rescue dose: 18%
Dogs [3]; maropitant 1 mg/kg SQ or morphine 0.5 mg/kg SQ before anesthesia, FIG. 2
  isoflurane anesthesia required during ovary ligation and resection (vaporizer setting): 1.41±0.25%
Dogs [3]; maropitant 1 mg/kg SQ or morphine 0.5 mg/kg SQ before anesthesia, end of surgery, FIG. 4
  isoflurane anesthesia required during skin closure: 1.26±0.19%
Dogs [3]; maropitant 1 mg/kg SQ or morphine 0.5 mg/kg SQ before anesthesia, listed as maropitant
  Post-Operative Carprofen Rescue Analgesia (4 mg/kg, IV): dogs requiring a rescue dose: 18%
Dogs [3]
  pain assessment, Visual Analogue Pain Scale (0-10), compared to control group: showed fewer overt signs of pain and discomfort

## Cc1cnc(NC(=O)C2=C(O)c3ccccc3S(=O)(=O)N2C)s1 [Meloxciam]
Dogs [1]; meloxicam 0.2 mg/kg, sevoflurane, Yamashita et al., 2008
  MAC Reduction (%, mean ± SD): 23%

## CN1CC[C@]23c4c5ccc(O)c4O[C@H]2[C@@H](O)C=C[C@H]3[C@H]1C5 [Morphine, morphine]
Dogs [1]; dog, in vivo
  MAC Reduction (%, mean ± SD): 35, 39%
Dogs [3]; before anesthesia
  dogs showing overt signs of nausea after surgery: 31%
Dogs [3]; [4]
  average heart rate throughout surgery: 115±23 beats per minute
  average respiratory rate throughout surgery: 27±20 breaths per minute
  dogs that started eating within 3 hours following surgery: 26%
  dogs whose esophageal pH decreased below 5 during surgery (gastric regurgitation): 29%
  subjects responding with panting during surgical painful stimulation: 38%
  Post-Operative Carprofen Rescue Analgesia (4 mg/kg, IV): dogs requiring a rescue dose: 30%
Dogs [3]; maropitant 1 mg/kg SQ or morphine 0.5 mg/kg SQ before anesthesia, listed as morphine
  Post-Operative Carprofen Rescue Analgesia (4 mg/kg, IV): dogs requiring a rescue dose: 30%
Dogs [3]
  pain assessment, Visual Analogue Pain Scale (0-10), compared to control group: only through the initial two hours of assessment
